Test results from US20240207427A1, “SELECTIVE DRUG RELEASE FROM INTERNALIZED CONJUGATES OF BIOLOGICALLY ACTIVE COMPOUNDS” (priority 2021, published 2024).
Read-outs that look alike come from different tables or passages of the source.

Columns and labels:
Type in all cases: cell-based
[1] = tested on: acute myeloid leukemia cells (MOLM-13); experiment: In vitro potency (CellTiter-Glo, 96 h), MOLM-13; settings: Homo sapiens, MOLM-13, 96 h
Outline: (§1)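 Medium: RPMI 1640 + 20% FBS. Pre-seeding: 24 h. Treatment: ADC or CPT free drug serial dilutions, 96 h, 37 °C. Read-out: luminescence; IC50 in ng/mL and nmol/L.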

Ls174T cells = experiment: In vitro potency (CellTiter-Glo, 96 h), Ls174T; settings: Homo sapiens, LS174T
Outline: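 Growth inhibition after 96 h at 37 °C with test article, measured by luminescence; cells in RPMI 1640, 20% FBS.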

melanoma cells (A2058) = experiment: In vitro potency (CellTiter-Glo, 96 h), A2058; settings: Homo sapiens, A2058, 96 h
Outline: (§2)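 Cells in log-phase growth seeded 24 h in RPMI 1640 with 20% FBS, then exposed to serially diluted ADC or CPT free drug for 96 h at 37 °C. Growth inhibition read by CellTiter-Glo luminescence; IC50 reported in ng/mL or nmol/L.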

[2] = tested on: anaplastic large cell lymphoma cells (DELBVR); experiment: In vitro potency (CellTiter-Glo, 96 h), DELBVR
Outline: as §2

[3] = tested on: non-small-cell lung cancer cells (Calu1); experiment: In vitro potency (CellTiter-Glo, 96 h), Calu1; settings: Homo sapiens, Calu-1, 96 h
Outline: as §2

[4] = tested on: B-lymphocyte cancer cells (SU-DHL4); experiment: In vitro potency (CellTiter-Glo, 96 h), SU-DHL-4; settings: Homo sapiens, SU-DHL-4, 96 h
Outline: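 Authenticated lines (STR), used within 2 months of resuscitation, were seeded 24 h before treatment. Exposure to ADC dilutions lasted 96 h at 37 °C in RPMI 1640 with 20% FBS; viability was quantified luminescently.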

[5] = tested on: renal carcinoma cells (786-O); experiment: In vitro potency (CellTiter-Glo, 96 h), 786-O; settings: Homo sapiens, 786-0, 96 h
Outline: as §2

[6] = tested on: anaplastic large cell lymphoma cells (Karpas299); experiment: In vitro potency (CellTiter-Glo, 96 h), Karpas299; settings: Homo sapiens, KARPAS-299, 96 h
Outline: as §2

[7] = tested on: breast cancer cells (MDA-MB-231); experiment: In vitro potency (CellTiter-Glo, 96 h), MDA-MB-231; settings: Homo sapiens, MDA-MB-231, 96 h
Outline: as §2

[8] = tested on: pancreatic cancer cells (BxPC3); experiment: In vitro potency (CellTiter-Glo, 96 h), BxPC3; settings: Homo sapiens, BXPC-3, 96 h
Outline: as §1

[9] = tested on: anaplastic large cell lymphoma cells (DEL); experiment: In vitro potency (CellTiter-Glo, 96 h), DEL
Outline: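 Four-day continuous exposure at 37 °C to serially diluted ADC or free camptothecin payload, in RPMI 1640 with 20% FBS after 24 h pre-plating. Luminescent signal gave IC50 (ng/mL; nmol/L).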

[10] = tested on: Hodgkin's lymphoma cells (L540cy); experiment: In vitro potency (CellTiter-Glo, 96 h), L540cy
Outline: as §2

[11] = CPT free drugs, Table 24, CellTiter-Glo after 96 h exposure, read-out: IC50 (nmol/L) MOLM-13
[12] = CPT free drugs, Table 24, CellTiter-Glo after 96 h exposure, read-out: IC50 (nmol/L) Ls174T
[13] = CPT free drugs, Table 24, CellTiter-Glo after 96 h exposure, read-out: IC50 (nmol/L) A2058
[14] = CPT free drugs, Table 24, CellTiter-Glo after 96 h exposure, read-out: IC50 (nmol/L) DELBVR
[15] = CPT free drugs, Table 24, CellTiter-Glo after 96 h exposure, read-out: IC50 (nmol/L) Calu1
[16] = CPT free drugs, Table 24, CellTiter-Glo after 96 h exposure, read-out: IC50 (nmol/L) SU-DHL-4
[17] = CPT free drugs, Table 24, CellTiter-Glo after 96 h exposure, read-out: IC50 (nmol/L) 786-O
[18] = CPT free drugs, Table 24, CellTiter-Glo after 96 h exposure, read-out: IC50 (nmol/L) Karpas299
[19] = CPT free drugs, Table 24, CellTiter-Glo after 96 h exposure, read-out: IC50 (nmol/L) MDAMB231
[20] = CPT free drugs, Table 24, CellTiter-Glo after 96 h exposure, read-out: IC50 (nmol/L) BxPC3
[21] = CPT free drugs, Table 24, CellTiter-Glo after 96 h exposure, read-out: IC50 (nmol/L) DEL
[22] = CPT free drugs, Table 24, CellTiter-Glo after 96 h exposure, read-out: IC50 (nmol/L) L540cy
[23] = camptothecin free drug, 96 h, read-out: MOLM-13 IC50
[24] = camptothecin free drug, 96 h, read-out: A2058 IC50
[25] = camptothecin free drug, read-out: DELBVR IC50
[26] = camptothecin free drug, 96 h, read-out: Calu1 IC50
[27] = camptothecin free drug, 96 h, read-out: SU-DHL-4 IC50
[28] = camptothecin free drug, 96 h, read-out: 786-O IC50
[29] = camptothecin free drug, 96 h, read-out: Karpas299 IC50
[30] = camptothecin free drug, 96 h, read-out: MDAMB231 IC50
[31] = camptothecin free drug, 96 h, read-out: BxPC3 IC50
[32] = camptothecin free drug, read-out: DEL IC50
[33] = camptothecin free drug, read-out: L540cy IC50

Row | SMILES | IC50 [1, 11] | IC50 (Ls174T cells; [12]) | IC50 (melanoma cells (A2058); [13]) | IC50 [2, 14] | IC50 [3, 15] | IC50 [4, 16] | IC50 [5, 17] | IC50 [6, 18] | IC50 [7, 19] | IC50 [8, 20] | IC50 [9, 21] | IC50 [10, 22] | further results
1 | CC[C@@]1(O)C(=O)OCc2c1cc1n(c2=O)Cc2c-1nc1ccc(F)cc1c2CN [Compound 2b] | 19 nmol/L | 14 nmol/L | 8 nmol/L | 5.7 nmol/L | 76 nmol/L | 13 nmol/L | 27 nmol/L | 18 nmol/L | 17 nmol/L | 58 nmol/L | 4 nmol/L | 6 nmol/L | –
2 | CC[C@@]1(O)C(=O)OCc2c1cc1n(c2=O)Cc2c-1nc1ccc(C)cc1c2CN [Compound 2a] | 29 nmol/L | 3.9 nmol/L | 3 nmol/L | 3 nmol/L | 42 nmol/L | 4 nmol/L | 7 nmol/L | 9 nmol/L | 5 nmol/L | 20 nmol/L | 1 nmol/L | 4 nmol/L | –
3 | CC[C@@]1(O)C(=O)OCc2c1cc1n(c2=O)Cc2c-1nc1cc(Br)c(C)c(F)c1c2CN [Compound 2k] | 58 nmol/L | 11.9 nmol/L | 4 nmol/L | 3.3 nmol/L | 81 nmol/L | 4 nmol/L | 5 nmol/L | 14 nmol/L | 8 nmol/L | 42 nmol/L | 3.5 nmol/L | 4 nmol/L | –
4 | CC[C@@]1(O)C(=O)OCc2c1cc1n(c2=O)Cc2c-1nc1cc3c(cc1c2CNC1CCN(C(=O)OC(C)(C)C)CC1)OCO3 [Compound 7q] | – | – | – | – | – | – | – | – | – | – | – | – | IC50 [1, 23]: 33 nmol/L; IC50 (Ls174T cells; camptothecin free drug, 96 h, read-out: Ls174T IC50): 24 nmol/L; IC50 (melanoma cells (A2058); [24]): 7 nmol/L; IC50 [2, 25]: 13 nmol/L; IC50 [3, 26]: 1000 nmol/L; IC50 [4, 27]: 17 nmol/L; IC50 [5, 28]: 26 nmol/L; IC50 [6, 29]: 26 nmol/L; IC50 [7, 30]: 131 nmol/L; IC50 [8, 31]: 28 nmol/L; IC50 [9, 32]: 6 nmol/L; IC50 [10, 33]: 15 nmol/L
5 | CC[C@@]1(O)C(=O)OCc2c1cc1n(c2=O)Cc2c-1nc1cc(F)ccc1c2CN [Compound 2f] | 11 nmol/L | 3.9 nmol/L | 2 nmol/L | 1.2 nmol/L | 40 nmol/L | 4 nmol/L | 6 nmol/L | 6 nmol/L | 4 nmol/L | 9 nmol/L | 1 nmol/L | 3 nmol/L | –
6 | CC[C@@]1(O)C(=O)OCc2c1cc1n(c2=O)Cc2c-1nc1cc(F)c(C)c(C)c1c2CN [Compound 2s] | – | – | – | – | – | – | – | – | – | – | – | – | IC50 ([1]; read-out: IC50 (nmol/L) MOLM-13, CPT free drugs, Table 24, CellTiter-Glo after 96 h exposure): 18 nmol/L; IC50 (Ls174T cells; 96 h, read-out: IC50 (nmol/L) Ls174T, CPT free drugs, Table 24, CellTiter-Glo after 96 h exposure): 3.7 nmol/L; IC50 (melanoma cells (A2058); read-out: IC50 (nmol/L) A2058): 1 nmol/L; IC50 ([2]; read-out: IC50 (nmol/L) DELBVR, CPT free drugs, Table 24, CellTiter-Glo after 96 h exposure): 1 nmol/L; IC50 ([3]; read-out: IC50 (nmol/L) Calu1): 22 nmol/L; IC50 ([4]; read-out: IC50 (nmol/L) SU-DHL-4, CPT free drugs, Table 24, CellTiter-Glo after 96 h exposure): 2 nmol/L; IC50 ([5]; read-out: IC50 (nmol/L) 786-O, CPT free drugs, Table 24, CellTiter-Glo after 96 h exposure): 3 nmol/L; IC50 ([6]; read-out: IC50 (nmol/L) Karpas299, CPT free drugs, Table 24, CellTiter-Glo after 96 h exposure): 2 nmol/L; IC50 ([7]; read-out: IC50 (nmol/L) MDAMB231, CPT free drugs, Table 24, CellTiter-Glo after 96 h exposure): 2 nmol/L; IC50 ([8]; read-out: IC50 (nmol/L) BxPC3, CPT free drugs, Table 24, CellTiter-Glo after 96 h exposure): 7 nmol/L; IC50 ([9]; read-out: IC50 (nmol/L) DEL, CPT free drugs, Table 24, CellTiter-Glo after 96 h exposure): 1 nmol/L; IC50 ([10]; read-out: IC50 (nmol/L) L540cy, CPT free drugs, Table 24, CellTiter-Glo after 96 h exposure): 2 nmol/L
7 | CC[C@@]1(O)C(=O)OCc2c1cc1n(c2=O)Cc2c-1nc1cc3c(cc1c2CN)OCO3 [AMDCPT, (5S)-14-(aminomethyl)-5-ethyl-5-hydroxy-7,18,20-trioxa-11,24-diazahexacyclo[11.11.0.02,11.04,9.015,23.017,21]tetracosa-1(13),2,4(9),14,16,21,23-heptaene-6,10-dione, reference compound] | 4.3 nmol/L | 1 nmol/L | 0.7 nmol/L | 0.8 nmol/L | 14.4 nmol/L | 1 nmol/L | 1.9 nmol/L | 1.8 nmol/L | 1.4 nmol/L | 3.6 nmol/L | 0.4 nmol/L | 1 nmol/L | IC50 [1, 23]: 20 nmol/L; IC50 (melanoma cells (A2058); [24]): 3 nmol/L; IC50 [2, 25]: 1 nmol/L; IC50 [3, 26]: 52 nmol/L; IC50 [4, 27]: 2 nmol/L; IC50 [5, 28]: 3 nmol/L; IC50 [6, 29]: 2 nmol/L; IC50 [7, 30]: 21 nmol/L; IC50 [8, 31]: 3 nmol/L; IC50 [9, 32]: 1 nmol/L; IC50 [10, 33]: 1 nmol/L
8 | CC[C@@]1(O)C(=O)OCc2c1cc1n(c2=O)Cc2c-1nc1cc(F)c(C)c(C=C(C)C)c1c2CN [Compound 6, (S)-11-(aminomethyl)-4-ethyl-8-fluoro-4-hydroxy-9-methyl-10-(2-methylprop-1-en-1-yl)-1,12-dihydro-14H-pyrano[3′,4′:6,7]indolizino[1,2-b]quinoline-3,14(4H)-dione] | – | – | – | – | – | – | – | – | – | – | – | – | IC50 ([1]; read-out: MOLM-13 IC50, Table 28, CPT free drugs, acute myeloid leukemia cells MOLM-13, 96 h, CellTiter-Glo): 4 nmol/L; IC50 (Ls174T cells; 96 h, read-out: Ls174T IC50, Table 28, CPT free drugs, Ls174T cells, 96 h, CellTiter-Glo): 21 nmol/L; IC50 (melanoma cells (A2058); read-out: A2058 IC50): 5 nmol/L; IC50 ([2]; read-out: DELBVR IC50, Table 28, CPT free drugs, anaplastic large cell lymphoma cells DELBVR, CellTiter-Glo): 3 nmol/L; IC50 ([3]; read-out: Calu1 IC50): 17 nmol/L; IC50 ([4]; read-out: SU-DHL-4 IC50, Table 28, CPT free drugs, B-lymphocyte cancer cells SU-DHL4, 96 h, CellTiter-Glo): 2 nmol/L; IC50 ([5]; read-out: 786-O IC50, Table 28, CPT free drugs, renal carcinoma cells 786-O, 96 h, CellTiter-Glo): 5 nmol/L; IC50 ([6]; read-out: Karpas299 IC50, Table 28, CPT free drugs, anaplastic large cell lymphoma cells Karpas299, 96 h, CellTiter-Glo): 4 nmol/L; IC50 ([7]; read-out: MDAMB231 IC50, Table 28, CPT free drugs, breast cancer cells MDA-MB-231, 96 h, CellTiter-Glo): 7 nmol/L; IC50 ([8]; read-out: BxPC3 IC50, Table 28, CPT free drugs, pancreatic cancer cells BxPC3, 96 h, CellTiter-Glo): 8 nmol/L; IC50 ([9]; read-out: DEL IC50, Table 28, CPT free drugs, anaplastic large cell lymphoma cells DEL, CellTiter-Glo): 1 nmol/L; IC50 ([10]; read-out: L540cy IC50, Table 28, CPT free drugs, Hodgkin's lymphoma cells L540cy, CellTiter-Glo): 4 nmol/L
9 | CC[C@@]1(O)C(=O)OCc2c1cc1n(c2=O)Cc2c-1nc1cc(Cl)c(C)c(F)c1c2CN [Compound 2ab] | 53 nmol/L | 6 nmol/L | 3 nmol/L | 3 nmol/L | 22 nmol/L | 4 nmol/L | 6 nmol/L | 7 nmol/L | 30 nmol/L | 12 nmol/L | 2 nmol/L | 4 nmol/L | –
